For experiment [1], the target named is T1, mu opioid receptor (MOR) (Homo sapiens, UniProt P35372). Description: PathHunter β-arrestin recruitment assay, PAM mode with EC20 endomorphin-1. The experiment is classed as cell-based. Summed up: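 Enzyme fragment complementation read-out: β-gal ED fragment fused to receptor, EA fused to β-arrestin, recruitment restoring β-gal activity detected by chemiluminescence. EC50 and percent maximal response derived for each compound.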

The target in experiment [2] is T1, mu opioid receptor (MOR). Description: Hit Hunter cAMP signaling assay (adenylyl cyclase inhibition), PAM mode with EC20 endomorphin-1. It is filed as cell-based.
The mark [3] stands for this setting: maximal response for β-arrestin recruitment.
Setting [4] is: β-arrestin recruitment, read-out: β-arr. EC50.
Setting [5] is: cAMP EC50, adenylyl cyclase inhibition.
[6] abbreviates: maximal response for adenylyl cyclase inhibition.
The mark [7] stands for this setting: maximal response, β-arrestin recruitment.
[8] abbreviates: adenylyl cyclase inhibition, read-out: cAMP EC50.
The mark [9] stands for this setting: maximal response, adenylyl cyclase inhibition.

SMILES strings stand for the structures.

T1 sequence (P35372 whole entry, the tested form may be a part): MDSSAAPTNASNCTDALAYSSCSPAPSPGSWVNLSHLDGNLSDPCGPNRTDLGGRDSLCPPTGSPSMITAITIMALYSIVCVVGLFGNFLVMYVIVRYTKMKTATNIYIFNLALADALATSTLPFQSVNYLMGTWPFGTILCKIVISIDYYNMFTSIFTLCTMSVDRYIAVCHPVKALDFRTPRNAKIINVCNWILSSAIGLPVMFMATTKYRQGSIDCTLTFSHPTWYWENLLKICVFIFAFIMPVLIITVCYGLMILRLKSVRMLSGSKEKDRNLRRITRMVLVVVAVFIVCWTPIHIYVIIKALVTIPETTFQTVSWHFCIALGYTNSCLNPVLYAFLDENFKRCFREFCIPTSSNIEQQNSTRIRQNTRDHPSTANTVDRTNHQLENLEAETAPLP

Take `Fc1cc(C2CCCCN2Cc2cccc(Cl)c2)cc(C(F)(F)F)c1` (stereo not drawn) [compound 157]: the “β-arr Max. Resp.” value in experiment [1] (setting [3]) is “F (F represents a maximal response of > 60%)”. Moreover, the EC50 in experiment [1] (setting [4]) and in experiment [2] (setting [5]) was more than 2.1 µM throughout. In experiment [2] (setting [6]), the “cAMP Max. Resp.” value is listed as “E (E represents a maximal response of 40-60%)”.
`OC1CCN(c2nc(Cl)ncc2F)C(c2ccc(F)c(Cl)c2)C1` (stereo not drawn) [compound 293]: the “β-arr Max. Resp.” value in experiment [1] (setting [3]) was “F (F represents a maximal response of > 60%)”. For the same molecule, the EC50 is more than 2.1 µM in experiment [1] (setting [4]) and 0.7 to 2.1 µM in experiment [2] (setting [5]). Further, in experiment [2] (setting [6]), the “cAMP Max. Resp.” value is “F (F represents a maximal response of > 60%)”.
For the molecule `COc1ncccc1C1CCCCN1c1nc(Cl)ncc1F` (stereo not drawn) [compound 380], the “β-arr Max. Resp.” value in experiment [1] (setting [3]) is “D (D represents a maximal response of < 40%)”. Moreover, the 50% effective concentration (EC50) in experiment [1] (setting [4]) and in experiment [2] (setting [5]) was less than 0.7 µM throughout. Moreover, the “cAMP Max. Resp.” value in experiment [2] (setting [6]) is listed as “D (D represents a maximal response of < 40%)”.
Take `Fc1ccc(C2CCCCN2c2cccnc2N2CCOCC2)cc1Cl` (stereo not drawn) [compound 479]: in experiment [1] (setting [7]), the “β-arr Max. Resp.” value is on record as “F (F represents a maximal response of > 60%)”. Also, the EC50 in experiment [1] (setting [4]) and in experiment [2] (setting [8]) was more than 2.1 µM throughout. The “cAMP Max. Resp.” value in experiment [2] (setting [9]) is given as “D (D represents a maximal response of < 40%)”.
For `[O-][S+]1CCN(c2nc(Cl)ncc2F)C(c2cc(F)cc(C(F)(F)F)c2)C1` (mixture of isomers) [Compound 302], the “β-arr Max. Resp.” value in experiment [1] (setting [3]) was “E (E represents a maximal response of 40-60%)”. Moreover, the EC50 in experiment [1] (setting [4]) and in experiment [2] (setting [8]) was more than 2.1 µM throughout. The “cAMP Max. Resp.” value in experiment [2] (setting [6]) is given as “D (D represents a maximal response of < 40%)”.
Regarding `Fc1cnc(Cl)nc1N1CCCCC1c1ccnc(Cl)c1` (stereo not drawn) [compound 328], the “β-arr Max. Resp.” value in experiment [1] (setting [3]) is “D (D represents a maximal response of < 40%)”. For the same molecule, the EC50 in experiment [1] (setting [4]) and in experiment [2] (setting [5]) was less than 0.7 µM each time. Besides, in experiment [2] (setting [6]), the “cAMP Max. Resp.” value is listed as “D (D represents a maximal response of < 40%)”.
For `COc1ccc(C2CC(C(F)(F)F)CN2S(=O)(=O)c2ccc(Cl)cc2)cc1Br` (single isomer, unassigned) [Compound 119], the “β-arr Max. Resp.” value in experiment [1] (setting [3]) is “E (E represents a maximal response of 40-60%)”. The EC50 in experiment [1] (setting [4]) and in experiment [2] (setting [8]) was more than 2.1 µM each time. Further, in experiment [2] (setting [6]), the “cAMP Max. Resp.” value is reported as “D (D represents a maximal response of < 40%)”.
For the molecule `Fc1ccc(C2COCCN2c2nc(Cl)ncc2F)cc1Cl` (racemic) [Compound 189], the “β-arr Max. Resp.” value in experiment [1] (setting [3]) is reported as “F (F represents a maximal response of > 60%)”. Also, the EC50 in experiment [1] (setting [4]) and in experiment [2] (setting [8]) was 0.7 to 2.1 µM each time. Further, in experiment [2] (setting [6]), the “cAMP Max. Resp.” value is reported as “F (F represents a maximal response of > 60%)”.
Consider `Fc1cnc(Cl)nc1N1CCCCC1c1ccn2nncc2c1` (stereo not drawn) [compound 374], for which the “β-arr Max. Resp.” value in experiment [1] (setting [3]) is “D (D represents a maximal response of < 40%)”. Besides, the EC50 in experiment [1] (setting [4]) and in experiment [2] (setting [5]) was less than 0.7 µM throughout. In addition, in experiment [2] (setting [6]), the “cAMP Max. Resp.” value is “D (D represents a maximal response of < 40%)”.
As for `FC(F)(F)c1cccc(C2CCCCN2c2cccc(Cl)c2)n1` (stereo not drawn) [compound 459], the “β-arr Max. Resp.” value in experiment [1] (setting [7]) is “F (F represents a maximal response of > 60%)”. Besides, the EC50 in experiment [1] (setting [4]) and in experiment [2] (setting [8]) was more than 2.1 µM in each case. In experiment [2] (setting [9]), the “cAMP Max. Resp.” value is recorded as “D (D represents a maximal response of < 40%)”.
As to `Fc1ccc(C2CCCCN2c2nc(Cl)ncc2F)cc1Cl` (stereo not drawn) [compound 121], the “β-arr Max. Resp.” value in experiment [1] (setting [3]) is “F (F represents a maximal response of > 60%)”. The EC50 in experiment [1] (setting [4]) and in experiment [2] (setting [5]) was less than 0.7 µM in each case. Besides, the “cAMP Max. Resp.” value in experiment [2] (setting [6]) is “E (E represents a maximal response of 40-60%)”.
For the molecule `O=S(=O)(c1ccc(Cl)cc1)N1CCCCC1c1cccc(C(F)(F)F)c1` (stereo not drawn) [compound 18], the “β-arr Max. Resp.” value in experiment [1] (setting [3]) is listed as “F (F represents a maximal response of > 60%)”. For the same molecule, the “β-arrestin Max Response” value in experiment [1] (β-arrestin recruitment, activity switching by MOR PAMs) is “F (F represents a maximal response of >60%)”. In addition, the EC50 in experiment [1] (β-arrestin recruitment, activity switching by MOR PAMs, read-out: β-arrestin EC50) is more than 2.1 µM; in experiment [1] (setting [4]) it was more than 2.1 µM; in experiment [2] (adenylyl cyclase inhibition, activity switching by MOR PAMs, read-out: cAMP EC50), more than 2.1 µM; in experiment [2] (setting [8]), 0.7 to 2.1 µM. In addition, in experiment [2] (adenylyl cyclase inhibition, activity switching by MOR PAMs), the “cAMP Max Resp.” value is on record as “D (D represents a maximal response of < 40%)”. The “cAMP Max. Resp.” value in experiment [2] (setting [6]) is reported as “D (D represents a maximal response of < 40%)”.
`Fc1cc(C2CC(F)CCN2c2nc(Cl)ncc2F)cc(C(F)(F)F)c1` (stereo not drawn) [compound 196]: in experiment [1] (setting [3]), the “β-arr Max. Resp.” value is recorded as “F (F represents a maximal response of > 60%)”. The EC50 in experiment [1] (setting [4]) and in experiment [2] (setting [5]) was less than 0.7 µM each time. Also, the “cAMP Max. Resp.” value in experiment [2] (setting [6]) is on record as “F (F represents a maximal response of > 60%)”.
Regarding `O=S(=O)(c1ccc(Cl)cc1)N1CCCCC1c1ccnc(F)c1` (racemic) [compound 59], the “β-arr Max. Resp.” value in experiment [1] (setting [3]) is reported as “F (F represents a maximal response of > 60%)”. Moreover, the half-maximal effective concentration (EC50) in experiment [1] (setting [4]) and in experiment [2] (setting [8]) was more than 2.1 µM throughout. Further, in experiment [2] (setting [6]), the “cAMP Max. Resp.” value is “F (F represents a maximal response of > 60%)”.
